Data from the Kinase Knowledgebase extract (Sharma et al. 2016).

How the values were obtained:
PIK3CB (Human) = PIK3CB (Human) (UniProt P42338); assay: Enzyme Assay
PIK3CD (Human) [1] = target: PIK3CD (Human) (UniProt O00329); assay: Enzyme Assay
PIK3CG (human) = PIK3CG (human) (UniProt P48736); assay: Enzyme Assay
PIK3CD (Human) [2] = target: PIK3CD (Human) (UniProt O00329); assay: Cell-Based Assay; details: raji

Chain of PIK3CB (Human) (P42338 whole entry, looked up): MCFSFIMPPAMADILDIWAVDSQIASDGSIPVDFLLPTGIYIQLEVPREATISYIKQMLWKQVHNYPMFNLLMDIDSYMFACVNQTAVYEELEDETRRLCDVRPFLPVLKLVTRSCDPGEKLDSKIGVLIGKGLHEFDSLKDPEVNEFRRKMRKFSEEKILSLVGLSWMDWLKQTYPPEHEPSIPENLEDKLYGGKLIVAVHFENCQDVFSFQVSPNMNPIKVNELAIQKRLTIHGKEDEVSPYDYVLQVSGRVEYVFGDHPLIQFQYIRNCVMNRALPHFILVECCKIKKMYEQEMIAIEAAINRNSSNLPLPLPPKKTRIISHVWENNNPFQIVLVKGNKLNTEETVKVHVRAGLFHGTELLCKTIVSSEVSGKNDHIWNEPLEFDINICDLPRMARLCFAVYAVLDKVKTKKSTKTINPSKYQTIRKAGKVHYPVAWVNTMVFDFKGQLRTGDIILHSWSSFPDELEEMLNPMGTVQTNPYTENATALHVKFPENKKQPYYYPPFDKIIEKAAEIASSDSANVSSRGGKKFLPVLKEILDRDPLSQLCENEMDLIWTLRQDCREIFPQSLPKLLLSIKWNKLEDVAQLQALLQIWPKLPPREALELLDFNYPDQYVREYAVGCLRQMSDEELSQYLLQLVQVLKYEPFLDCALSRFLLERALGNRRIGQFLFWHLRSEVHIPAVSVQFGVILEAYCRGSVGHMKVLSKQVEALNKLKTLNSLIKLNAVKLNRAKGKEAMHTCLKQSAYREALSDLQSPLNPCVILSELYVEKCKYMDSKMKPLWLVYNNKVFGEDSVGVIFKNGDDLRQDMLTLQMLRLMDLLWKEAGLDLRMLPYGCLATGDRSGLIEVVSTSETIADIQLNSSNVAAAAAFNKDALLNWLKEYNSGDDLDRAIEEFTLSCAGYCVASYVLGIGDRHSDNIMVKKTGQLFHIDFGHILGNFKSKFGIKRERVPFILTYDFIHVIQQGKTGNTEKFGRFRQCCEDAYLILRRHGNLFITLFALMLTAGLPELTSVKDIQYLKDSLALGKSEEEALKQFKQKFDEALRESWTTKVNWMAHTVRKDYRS
Chain of PIK3CG (human) (P48736 whole entry, looked up): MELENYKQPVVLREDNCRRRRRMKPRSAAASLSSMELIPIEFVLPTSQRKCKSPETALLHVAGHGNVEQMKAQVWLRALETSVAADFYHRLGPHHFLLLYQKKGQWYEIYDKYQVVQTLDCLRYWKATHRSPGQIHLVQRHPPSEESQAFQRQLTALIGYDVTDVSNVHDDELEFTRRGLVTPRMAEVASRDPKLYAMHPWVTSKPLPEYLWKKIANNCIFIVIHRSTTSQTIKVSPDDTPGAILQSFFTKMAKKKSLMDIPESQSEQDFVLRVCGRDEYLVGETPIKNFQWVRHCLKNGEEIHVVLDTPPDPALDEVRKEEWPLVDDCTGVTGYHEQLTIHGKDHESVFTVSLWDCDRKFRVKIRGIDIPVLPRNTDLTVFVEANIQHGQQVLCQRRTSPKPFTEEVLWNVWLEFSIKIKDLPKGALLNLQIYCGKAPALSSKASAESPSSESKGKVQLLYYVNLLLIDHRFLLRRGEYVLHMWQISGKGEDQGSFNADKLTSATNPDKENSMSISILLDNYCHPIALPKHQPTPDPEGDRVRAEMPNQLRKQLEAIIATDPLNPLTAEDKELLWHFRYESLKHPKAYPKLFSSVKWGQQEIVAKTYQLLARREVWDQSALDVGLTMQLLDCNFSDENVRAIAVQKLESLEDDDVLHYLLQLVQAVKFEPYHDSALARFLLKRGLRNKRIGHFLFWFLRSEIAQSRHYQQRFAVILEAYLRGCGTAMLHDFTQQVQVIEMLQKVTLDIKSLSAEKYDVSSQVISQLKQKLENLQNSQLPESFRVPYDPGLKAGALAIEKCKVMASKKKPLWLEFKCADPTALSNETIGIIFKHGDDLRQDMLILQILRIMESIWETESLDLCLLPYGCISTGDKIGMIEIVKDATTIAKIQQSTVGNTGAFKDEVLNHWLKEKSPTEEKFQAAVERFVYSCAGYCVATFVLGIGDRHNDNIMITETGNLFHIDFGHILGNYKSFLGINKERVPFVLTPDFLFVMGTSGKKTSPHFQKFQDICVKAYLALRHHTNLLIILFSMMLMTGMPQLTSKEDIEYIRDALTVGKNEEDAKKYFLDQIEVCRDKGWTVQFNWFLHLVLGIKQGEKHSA
Chain of PIK3CD (Human) (O00329 whole entry, looked up): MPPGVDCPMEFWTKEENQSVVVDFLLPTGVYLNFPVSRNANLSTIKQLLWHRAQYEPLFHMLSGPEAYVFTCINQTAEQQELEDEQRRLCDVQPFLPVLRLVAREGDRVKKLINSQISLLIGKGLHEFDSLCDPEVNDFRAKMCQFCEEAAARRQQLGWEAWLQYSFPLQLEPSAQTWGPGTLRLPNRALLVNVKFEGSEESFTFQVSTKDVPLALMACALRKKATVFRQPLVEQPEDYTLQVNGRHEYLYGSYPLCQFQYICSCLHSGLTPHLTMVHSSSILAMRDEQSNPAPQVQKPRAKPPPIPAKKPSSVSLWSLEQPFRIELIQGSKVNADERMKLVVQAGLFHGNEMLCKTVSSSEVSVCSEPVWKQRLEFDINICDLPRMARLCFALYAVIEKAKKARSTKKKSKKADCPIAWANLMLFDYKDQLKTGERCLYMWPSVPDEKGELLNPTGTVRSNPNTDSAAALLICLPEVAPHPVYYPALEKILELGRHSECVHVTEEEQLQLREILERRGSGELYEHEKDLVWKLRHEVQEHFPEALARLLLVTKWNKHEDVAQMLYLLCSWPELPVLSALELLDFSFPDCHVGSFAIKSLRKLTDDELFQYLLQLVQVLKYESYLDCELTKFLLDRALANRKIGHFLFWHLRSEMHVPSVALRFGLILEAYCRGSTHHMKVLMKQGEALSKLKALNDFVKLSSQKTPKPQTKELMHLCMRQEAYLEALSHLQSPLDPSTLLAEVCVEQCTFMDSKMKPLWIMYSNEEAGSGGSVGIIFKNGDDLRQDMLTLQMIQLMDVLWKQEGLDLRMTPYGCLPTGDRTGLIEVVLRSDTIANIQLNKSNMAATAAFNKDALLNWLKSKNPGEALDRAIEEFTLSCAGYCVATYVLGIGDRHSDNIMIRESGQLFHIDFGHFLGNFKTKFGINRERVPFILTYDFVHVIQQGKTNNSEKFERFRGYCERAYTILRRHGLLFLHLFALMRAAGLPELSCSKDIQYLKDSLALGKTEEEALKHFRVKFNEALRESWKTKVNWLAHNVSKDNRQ

Compound: C[C@H](NC(=O)c1c(N)nn2cccnc12)c1cc2cccc(C#CC(C)(C)C)c2c(=O)n1-c1ccccc1
- IC50 (PIK3CB (Human)): 5000 to 10000 nM
- IC50 (PIK3CD (Human) [1]): 5000 to 10000 nM
- IC50 (PIK3CG (human)): 1000 to 5000 nM
- IC50 (PIK3CD (Human) [2]): 1000 to 10000 nM

Compound: COc1ccc(C#Cc2cccc3cc([C@H](C)NC(=O)c4c(N)nn5cccnc45)n(-c4ccccc4)c(=O)c23)cn1
- IC50 (PIK3CB (Human)): 5000 to 10000 nM
- IC50 (PIK3CD (Human) [1]): 5000 to 10000 nM
- IC50 (PIK3CG (human)): 100 to 500 nM
- IC50 (PIK3CD (Human) [2]): 500 to 1000 nM

Compound: C[C@H](NC(=O)c1c(N)nn2cccnc12)c1cc2cccc(C#CC3CNC3)c2c(=O)n1-c1ccccc1
- IC50 (PIK3CB (Human)): 5000 to 10000 nM
- IC50 (PIK3CD (Human) [1]): 1000 to 5000 nM
- IC50 (PIK3CG (human)): 500 to 1000 nM
- IC50 (PIK3CD (Human) [2]): 1000 to 10000 nM

Compound: CCOC(C#Cc1cccc2cc([C@H](C)NC(=O)c3c(N)nn4cccnc34)n(-c3ccccc3)c(=O)c12)OCC
- IC50 (PIK3CB (Human)): 5000 to 10000 nM
- IC50 (PIK3CD (Human) [1]): 5000 to 10000 nM
- IC50 (PIK3CG (human)): 500 to 1000 nM
- IC50 (PIK3CD (Human) [2]): 500 to 1000 nM

Compound: CC#Cc1cccc2nc([C@H](C)NC(=O)c3c(N)nn4cccnc34)n(-c3ccccc3)c(=O)c12
- IC50 (PIK3CB (Human)): 1000 to 5000 nM
- IC50 (PIK3CD (Human) [1]): 500 to 1000 nM
- IC50 (PIK3CG (human)): 1 to 100 nM
- IC50 (PIK3CD (Human) [2]): 1 to 100 nM

Compound: C[C@H](NC(=O)c1c(N)nn2cccnc12)c1cc2cccc(C#Cc3cncn3C)c2c(=O)n1-c1ccccc1
- IC50 (PIK3CB (Human)): 5000 to 10000 nM
- IC50 (PIK3CD (Human) [1]): 5000 to 10000 nM
- IC50 (PIK3CG (human)): 100 to 500 nM
- IC50 (PIK3CD (Human) [2]): 500 to 1000 nM

Compound: C[C@H](NC(=O)c1c(N)nn2cccnc12)c1nc2cccc(C#Cc3cnn(C)c3)c2c(=O)n1C
- IC50 (PIK3CB (Human)): 1000 to 5000 nM
- IC50 (PIK3CD (Human) [1]): 5000 to 10000 nM
- IC50 (PIK3CG (human)): 1000 to 5000 nM
- IC50 (PIK3CD (Human) [2]): 500 to 1000 nM

Compound: C[C@H](NC(=O)c1c(N)nn2cccnc12)c1cc2cccc(C#Cc3ccc(=O)n(C)c3)c2c(=O)n1-c1ccccc1
- IC50 (PIK3CB (Human)): 5000 to 10000 nM
- IC50 (PIK3CD (Human) [1]): 1000 to 5000 nM
- IC50 (PIK3CG (human)): 1 to 100 nM
- IC50 (PIK3CD (Human) [2]): 100 to 500 nM

Compound: C[C@H](NC(=O)c1c(N)nn2cccnc12)c1cc2cccc(C#Cc3ccnn3C)c2c(=O)n1-c1ccccc1
- IC50 (PIK3CB (Human)): 5000 to 10000 nM
- IC50 (PIK3CD (Human) [1]): 5000 to 10000 nM
- IC50 (PIK3CG (human)): 100 to 500 nM
- IC50 (PIK3CD (Human) [2]): 500 to 1000 nM

Compound: C[C@H](NC(=O)c1c(N)nn2cccnc12)c1cc2cccc(C#Cc3cccnc3)c2c(=O)n1-c1ccccc1
- IC50 (PIK3CB (Human)): 5000 to 10000 nM
- IC50 (PIK3CD (Human) [1]): 5000 to 10000 nM
- IC50 (PIK3CG (human)): 100 to 500 nM
- IC50 (PIK3CD (Human) [2]): 100 to 500 nM

Compound: Cc1ncc(C#Cc2cccc3cc([C@H](C)NC(=O)c4c(N)nn5cccnc45)n(-c4ccccc4)c(=O)c23)n1C
- IC50 (PIK3CB (Human)): 5000 to 10000 nM
- IC50 (PIK3CD (Human) [1]): 5000 to 10000 nM
- IC50 (PIK3CG (human)): 1 to 100 nM
- IC50 (PIK3CD (Human) [2]): 500 to 1000 nM

Compound: C[C@H](NC(=O)c1c(N)nn2cccnc12)c1cc2cccc(C#Cc3ccccn3)c2c(=O)n1-c1ccccc1
- IC50 (PIK3CB (Human)): 5000 to 10000 nM
- IC50 (PIK3CD (Human) [1]): 5000 to 10000 nM
- IC50 (PIK3CG (human)): 100 to 500 nM
- IC50 (PIK3CD (Human) [2]): 500 to 1000 nM

Compound: C[C@H](NC(=O)c1c(N)nn2cccnc12)c1cc2cccc(CC(=O)c3cn[nH]c3)c2c(=O)n1-c1ccccc1
- IC50 (PIK3CB (Human)): 5000 to 10000 nM
- IC50 (PIK3CD (Human) [1]): 1000 to 5000 nM
- IC50 (PIK3CG (human)): 500 to 1000 nM
- IC50 (PIK3CD (Human) [2]): 100 to 500 nM

Compound: C[C@H](NC(=O)c1c(N)nn2cccnc12)c1cc2cccc(C#Cc3cncn3C)c2c(=O)n1C1CC1
- IC50 (PIK3CB (Human)): 1000 to 5000 nM
- IC50 (PIK3CD (Human) [1]): 5000 to 10000 nM
- IC50 (PIK3CG (human)): 1000 to 5000 nM
- IC50 (PIK3CD (Human) [2]): 100 to 500 nM

Compound: CC(=O)N1CCC(C#Cc2cccc3cc([C@H](C)NC(=O)c4c(N)nn5cccnc45)n(-c4ccccc4)c(=O)c23)CC1
- IC50 (PIK3CB (Human)): 5000 to 10000 nM
- IC50 (PIK3CD (Human) [1]): 5000 to 10000 nM
- IC50 (PIK3CG (human)): 100 to 500 nM
- IC50 (PIK3CD (Human) [2]): 500 to 1000 nM

Compound: C[C@H](NC(=O)c1c(N)nn2cccnc12)c1cc2cccc(C#CC3(O)CN4CCC3CC4)c2c(=O)n1-c1ccccc1 (stereo not given in full)
- IC50 (PIK3CB (Human)): 5000 to 10000 nM
- IC50 (PIK3CD (Human) [1]): 5000 to 10000 nM
- IC50 (PIK3CG (human)): 500 to 1000 nM
- IC50 (PIK3CD (Human) [2]): 1000 to 10000 nM

Compound: C#Cc1cccc2nc([C@H](C)NC(=O)c3c(N)nn4cccnc34)n(-c3ccc(F)cc3)c(=O)c12
- IC50 (PIK3CB (Human)): 5000 to 10000 nM
- IC50 (PIK3CD (Human) [1]): 1000 to 5000 nM
- IC50 (PIK3CG (human)): 1 to 100 nM
- IC50 (PIK3CD (Human) [2]): 1 to 100 nM

Compound: C[C@H](NC(=O)c1c(N)nn2cccnc12)c1cc2cccc(C#CC3CC3)c2c(=O)n1C1CC1
- IC50 (PIK3CB (Human)): 1000 to 5000 nM
- IC50 (PIK3CD (Human) [1]): 1000 to 5000 nM
- IC50 (PIK3CG (human)): 1000 to 5000 nM
- IC50 (PIK3CD (Human) [2]): 100 to 500 nM

Compound: Cc1c(C#Cc2cccc3nc([C@H](C)NC(=O)c4c(N)nn5cccnc45)n(-c4ccccc4)c(=O)c23)cnn1C
- IC50 (PIK3CB (Human)): 5000 to 10000 nM
- IC50 (PIK3CD (Human) [1]): 5000 to 10000 nM
- IC50 (PIK3CG (human)): 100 to 500 nM
- IC50 (PIK3CD (Human) [2]): 100 to 500 nM

Compound: C#Cc1cccc2nc([C@H](C)NC(=O)c3c(N)nn4cccnc34)n(C)c(=O)c12
- IC50 (PIK3CB (Human)): 500 to 1000 nM
- IC50 (PIK3CD (Human) [1]): 1000 to 5000 nM
- IC50 (PIK3CG (human)): 500 to 1000 nM
- IC50 (PIK3CD (Human) [2]): 1 to 100 nM

Compound: Cc1nc(C#Cc2cccc3cc([C@H](C)NC(=O)c4c(N)nn5cccnc45)n(-c4ccccc4)c(=O)c23)cs1
- IC50 (PIK3CB (Human)): 5000 to 10000 nM
- IC50 (PIK3CD (Human) [1]): 5000 to 10000 nM
- IC50 (PIK3CG (human)): 1 to 100 nM
- IC50 (PIK3CD (Human) [2]): 100 to 500 nM

Compound: C#Cc1cccc2nc([C@H](C)NC(=O)c3nccnc3N)n(-c3ccc(F)cc3)c(=O)c12
- IC50 (PIK3CB (Human)): 1000 to 5000 nM
- IC50 (PIK3CD (Human) [1]): 1000 to 5000 nM
- IC50 (PIK3CG (human)): 1 to 100 nM
- IC50 (PIK3CD (Human) [2]): 1 to 100 nM

Compound: C[C@H](NC(=O)c1c(N)nn2cccnc12)c1cc2cccc(C#Cc3cncs3)c2c(=O)n1-c1ccccc1
- IC50 (PIK3CB (Human)): 5000 to 10000 nM
- IC50 (PIK3CD (Human) [1]): 5000 to 10000 nM
- IC50 (PIK3CG (human)): 100 to 500 nM
- IC50 (PIK3CD (Human) [2]): 100 to 500 nM

Compound: Cc1nn(C)c(C)c1C#Cc1cccc2cc([C@H](C)NC(=O)c3c(N)nn4cccnc34)n(-c3ccccc3)c(=O)c12
- IC50 (PIK3CB (Human)): 5000 to 10000 nM
- IC50 (PIK3CD (Human) [1]): 5000 to 10000 nM
- IC50 (PIK3CG (human)): 1000 to 5000 nM
- IC50 (PIK3CD (Human) [2]): 1000 to 10000 nM

Compound: C[C@H](NC(=O)c1c(N)nn2cccnc12)c1cc2cccc(C#CCN3CCN(C)CC3)c2c(=O)n1-c1ccccc1
- IC50 (PIK3CB (Human)): 5000 to 10000 nM
- IC50 (PIK3CD (Human) [1]): 5000 to 10000 nM
- IC50 (PIK3CG (human)): 100 to 500 nM
- IC50 (PIK3CD (Human) [2]): 100 to 500 nM
